According to the NIST ThermoML archive (doi:10.1021/je700339f):

Conditions: Liquid

ClCCCCCl [1,4-dichlorobutane]
mass density [kg/m3]
Conditions	288.15 K	298.15 K	308.15 K	318.15 K
100 kPa	1143.7	1133.7	1122.3	1112
500 kPa	1144.1	1134	1122.7	1112.4
1000 kPa	1144.5	1134.4	1123.1	1112.8
1500 kPa	1144.8	1134.8	1123.5	1113.2
2000 kPa	1145.2	1135.2	1123.9	1113.7
2500 kPa	1145.5	1135.6	1124.3	1114.1
3000 kPa	1145.9	–	–	–
3100 kPa	–	1136.1	1124.8	1114.7
3500 kPa	–	–	–	1115
3600 kPa	1146.4	1136.4	1125.2	–
4100 kPa	1146.7	1136.8	1125.6	1115.5
4600 kPa	1147	1137.2	1126	1115.9
5100 kPa	1147.4	1137.6	1126.4	1116.3
5600 kPa	1147.7	1137.9	1126.9	1116.8
6100 kPa	1148.1	1138.4	1127.2	1117.3
6600 kPa	1148.5	1138.7	1127.5	1117.7
7100 kPa	1148.9	1139.1	1128	1118.1
7600 kPa	1149.2	1139.4	1128.4	1118.4
8100 kPa	1149.5	1139.8	1128.8	1118.9
8600 kPa	1149.9	1140.2	1129.2	1119.3
9200 kPa	1150.3	1140.6	1129.6	1119.8
9600 kPa	1150.7	1141	1130	1120.2
10100 kPa	1151	1141.4	1130.4	1120.6
10600 kPa	1151.3	–	1130.9	1121
10700 kPa	–	1141.8	–	–
11100 kPa	1151.7	1142.1	1131.2	1121.4
11600 kPa	1152	1142.4	1131.5	1121.8
12100 kPa	1152.4	1142.8	1131.9	1122.1
12600 kPa	1152.7	1143.2	1132.4	1122.6
13000 kPa	–	–	–	1123
13100 kPa	1153.1	1143.6	1132.6	–
13500 kPa	1153.3	–	–	–
13600 kPa	–	1143.9	1133.1	1123.3
14100 kPa	–	1144.2	1133.5	–
14200 kPa	1153.8	–	–	1123.9
14700 kPa	1154.1	1144.6	1133.9	1124.4
15100 kPa	–	–	1134.2	–
15200 kPa	1154.4	1145	–	1124.7
15700 kPa	1154.8	1145.4	1134.6	1125.1
16200 kPa	–	1145.8	1135	–
16300 kPa	1155.2	–	–	1125.4
16700 kPa	–	1146.1	1135.3	–
16800 kPa	1155.6	–	–	1126
17200 kPa	–	1146.5	1135.7	–
17300 kPa	1155.9	–	–	1126.3
17800 kPa	1156.2	1146.9	1136.1	1126.5
18300 kPa	1156.5	1147.2	1136.5	1127
18800 kPa	1156.8	1147.6	1136.8	1127.4
19100 kPa	1157.1	–	–	–
19200 kPa	–	1147.9	1137.2	1127.7
19700 kPa	1157.4	1148.2	1137.6	1128
20200 kPa	1157.8	1148.7	1138	1128.4
